These results are taken from patent publication US6455057B1, “Skin care composition” (Elizabeth Arden Co., div. of Conopco, Inc., priority 1999, dated 2002).

By inhibition is commonly meant the change of the read-out against control, counted positive when it falls.

Each structure is given as a SMILES string. Several values for one entry are separate records, joined by “and”; a condition that tells them apart may be missing. Equal entries are not always repeated.

Holding throughout (assay type): cell-based
For assay [1], the system named is decorin synthesis in human dermal fibroblasts. Briefly: Dot blot assay for decorin protein in dermal fibroblast conditioned medium.
Method: (§1) Primary human foreskin fibroblasts at passage 2 (P2) were seeded into 12-well plates at 10000 cells/cm^2 and maintained for 24 hours in an atmosphere of 5% carbon dioxide and 4% oxygen in Dulbeccos Modified Eagles Medium (DMEM) supplemented with 10% foetal calf serum. After this time the cells were washed with serum free DMEM and then incubated in fresh serum free DMEM for a further 60 hours. The fibroblast monolayers were then washed again with serum free DMEM. Test reagents and vehicle controls were added to the cells in triplicate in a final volume of 0.4 ml/well fresh serum free DMEM and incubated for a further 24 hours. This fibroblast conditioned medium was either analysed immediately or snap frozen in liquid nitrogen and stored at −70° C. for future analysis. The cells were then counted and data from the dot-blot analysis subsequently standardised to cell number.
(§2) Samples of conditioned medium from dermal fibroblasts treated with vehicle (as a control) or test reagents were supplemented with 20 mM dithiothreitol (1:10 dilution of 200 mM stock solution) and 0.1% sodium dodecylsulphate (1:100 dilution of 10% stock solution), mixed well and then incubated at 75° C. for 2 minutes. A standard for the assay was generated by serial dilution of neat fibroblast conditioned medium from fibroblasts seeded at 10000 cells/cm^2 in a 175 cm^2 flask and maintained in serum free DMEM as described above.
Assay samples were subsequently applied in triplicate to a prewetted sheet of Immobilon-P transfer membrane using the 96-well Bio-Dot Apparatus from Bio-Rad as described in the manufacturers guidelines. Approximately 200 μl of medium was applied per well. The medium was allowed to filter through the membrane under gravity (30 minutes) after which the membrane was washed twice with PBS (200 μl). These PBS washes were allowed to filter through the membrane under gravity (2×15 minutes). The Bio-Dot apparatus was then attached to a vacuum manifold and a third and final PBS wash carried out under suction. The apparatus was disassembled, the membrane removed and quickly cut as required before being placed in blocking buffer overnight at 4° C. Membranes prepared for decorin analysis were blocked with 3% (w/v) BSA/0.1% (v/v) Tween 20 in PBS, whilst those for procollagen-I analysis were blocked with 5% (w/v) non fat dried milk powder/0.05% Tween 20 in PBS.
Following this the Immobilon strips were again washed with TBS/Tween 20 (3×5 minutes) before being allowed to dry in air at room temperature. The dried membranes were wrapped in cellophane and exposed to a Molecular Dynamics storage phosphor screen for 16-18 hours. At the end of this time the exposed screen was scanned by a phosphorimager (Molecular Dynamics Phosphorimager SF) using ImageQuant™ software. Dot intensity was assessed by computer-assisted image analysis using the quantification tools in ImageQuant™, standardised to cell number and the effects of various test reagents on decorin and procollagen-I synthesis were determined relative to a vehicle treated control value of 100 arbitrary units.
Assay [2] deals with ICAM production by human skin fibroblasts. Briefly: Fibroblast ICAM-1 assay (PMA-induced).
Method: Intracellular adhesion molecules (ICAM) and PEG2 production by human skin fibroblasts can be induced by the inflammatory stimulus PMA (phorbal myristate acetate). PMA represents an external stressor which induces oxidative stress and inflammatory responses in cells.
Primary human foreskin fibroblasts at passage 2 (P2) were seeded into 96-well plates at 10000 cells/well and maintained for 24 hours in an atmosphere of 5% carbon dioxide in Dulbeccos Modified Eagles Medium (DMEM) supplemented with 10% foetal calf serum. The test substances as indicated in the table 2 below were added to fresh cell media (DMEM, supplemented with 10% foetal calf serum) in dimethylsulphoxide and ethanol final concentration<1%) in triplicate and incubated for a further 24 hours. Phorbal myristate acetate (PMA) (Sigma) was added 10 nM to the media and the cells incubated for a further 24 hours. […] The fibroblasts/media were then analysed as described below immediately or snap frozen in liquid nitrogen and stored at −70° C. for future analysis. The cells were then counted and data from the dot-blot analysis subsequently standardised to cell number.
Media were discarded and cells washed with Dulbecco PBS. To the washed cells, 150 μl 0.1% Triton X-100 (Sigma) was added for 3 minutes to extract ICAM from cell membrane. The extracts were transferred to Eppendoff centrifuge tubes and centrifuged at 1000 g for 2 min to remove cell debris. A volume of 100 μl supernatant was used for ICAM assay. The soluble ICAM-1 was assessed with commercially available immunoenzymometric assay kit (R&D Systems). Concentrations of ICAM-1 in the samples were determined based on parallel running standard curve.
Assay [3] relates to procollagen-I synthesis in human dermal fibroblasts. Briefly: Dot blot assay for procollagen-I protein in dermal fibroblast conditioned medium. To be noted: vehicle control = 100.
Method: as §1, §2
Assay samples were subsequently applied in triplicate to a prewetted sheet of Immobilon-P transfer membrane using the 96-well Bio-Dot Apparatus from Bio-Rad as described in the manufacturers guidelines. Approximately 200 μl of medium was applied per well. The medium was allowed to filter through the membrane under gravity (30 minutes) after which the membrane was washed twice with PBS (200 μl). These PBS washes were allowed to filter through the membrane under gravity (2×15 minutes). The Bio-Dot apparatus was then attached to a vacuum manifold and a third and final PBS wash carried out under suction. The apparatus was disassembled, the membrane removed and quickly cut as required before being placed in blocking buffer overnight at 4° C. […]
Following this the Immobilon strips were again washed with TBS/Tween 20 (3×5 minutes) before being allowed to dry in air at room temperature. […] Dot intensity was assessed by computer-assisted image analysis using the quantification tools in ImageQuant™, standardised to cell number and the effects of various test reagents on decorin and procollagen-I synthesis were determined relative to a vehicle treated control value of 100 arbitrary units.
In assay [4] the test system is PGE2 production by human skin fibroblasts. In words: Fibroblast PGE2 assay (PMA-induced). To be noted: PMA 10 nM + genistein 1 μM, read-out: % of Inhibition Of Fibroblast PGE2 Levels.
Method: Primary human foreskin fibroblasts at passage 2 (P2) were seeded into 96-well plates at 10000 cells/well and maintained for 24 hours in an atmosphere of 5% carbon dioxide in Dulbeccos Modified Eagles Medium (DMEM) supplemented with 10% foetal calf serum. The test substances as indicated in the table 2 below were added to fresh cell media (DMEM, supplemented with 10% foetal calf serum) in dimethylsulphoxide and ethanol final concentration<1%) in triplicate and incubated for a further 24 hours. Phorbal myristate acetate (PMA) (Sigma) was added 10 nM to the media and the cells incubated for a further 24 hours. […] The fibroblasts/media were then analysed as described below immediately or snap frozen in liquid nitrogen and stored at −70° C. for future analysis.
Volumes of 50 μl culture medium were taken for PGE2 assay after gently shaking the culture plate. PGE2 levels in the medium were determined with a Biotrak PGE2 immunoassay kit (Amersham, UK). The assay is based on the competition between unlabelled PGE2 in the sample and a fixed quantity of horseradish peroxidase labelled PGE2 for a limited amount of fixed PGE2 specific antibody. Concentrations of unlabelled sample PGE2 are determined according to a standard curve which was obtained at the same time.

In turn, `O=C(O)c1cc(O)c(O)c(O)c1` [gallic acid] registered a Decorin in assay [1] (0.001 μg/ml gallic acid, vehicle control = 100) of 96.6%.

For the compound `O=c1c(O)c(-c2ccc(O)c(O)c2)oc2cc(O)cc(O)c12` [quercetin], in assay [1] (1 μM quercetin, vehicle control = 100), the Decorin was found to be 97.60%. Also, the inhibition at 10 µM in assay [2] (Homo sapiens, Skin fibroblast, PMA 10 nM + quercetin 10 μM) amounted to 27.8%.

`O=c1c(-c2ccc(O)cc2)coc2cc(O)cc(O)c12` [genistein] gave a Procollagen-I in assay [3] (1 μM genistein) of 101.74%. The Decorin in assay [1] (1 μM genistein, vehicle control = 100) came out at 99.75%. Moreover, the inhibition at 1 µM in assay [2] (Homo sapiens, Skin fibroblast, PMA 10 nM + genistein 1 μM) was 30.6%; in assay [4] it was 86.2%.

As to `O=c1c(-c2ccc(O)cc2)coc2cc(O)ccc12` [daidzein], the Procollagen-I in assay [3] (0.01 μM daidzein) is 96.04%. Also, the Decorin in assay [1] (0.01 μM daidzein, vehicle control = 100) is reported as 92.83%.

As for `CCCCCCCCCCC/C=C\CCCCC(=O)O` [PA, petroselinic acid], the Procollagen-I was 117.34% in assay [3] (0.01 μM PA) and 90.94% in assay [3] (0.1 μM PA). Moreover, the Decorin in assay [1] (0.01 μM PA, relative to vehicle treated control = 100 arbitrary units, separate experiments) was 102.7% and 100.9% and 95.08% and 93.97% and 93.7% and 91.6%; in assay [1] (0.1 μM PA, vehicle control = 100) it was 100.3%.

Regarding `O=C(O[C@@H]1Cc2c(O)cc(O)cc2O[C@@H]1c1cc(O)c(O)c(O)c1)c1cc(O)c(O)c(O)c1` [EGCG, epigallocatechin gallate], the Decorin in assay [1] (0.005 μg/ml EGCG, vehicle control = 100) is recorded as 118.4%; in assay [1] (0.05 μg/ml EGCG, vehicle control = 100), 111.7%; in assay [1] (0.5 μg/ml EGCG, vehicle control = 100), 120.2%. Moreover, the “% of inhibition of fibroblast ICAM production” value in assay [2] (PMA 10 nM + EGCG 10 μM) was 14.4%.
